According to ChEMBL document CHEMBL4184132, “Chrodrimanins K-N and Related Meroterpenoids from the Fungus Penicillium sp. SCS-KFD09 Isolated from a Marine Worm, Sipunculus nudus” (J Nat Prod, 2017):
Converted amounts (≈) assume the structure as drawn.

tested on: Staphylococcus aureus; assay: Antimicrobial activity against Staphylococcus aureus by XTT assay; type: functional; details: not given

Compound	MIC
CN[C@@H]1[C@@H](O)[C@@H](O[C@@H]2[C@@H](O)[C@H](O[C@H]3O[C@H](CN)CC[C@H]3N)[C@@H](N)C[C@H]2N)OC[C@]1(C)O.O=S(=O)(O)O	4 µg/mL
C/C(=C\Cc1c(O)cc(O)c2c1C[C@@H](C)OC2=O)CCC(O)[C@@]1(C)CC[C@@H](C(C)(C)O)O1 (stereo partly specified)	32 µg/mL (≈ 71.3 µM)

tested on: Influenza A virus; assay: Antiviral activity against Influenza A virus (A/Puerto Rico/8/34(H1N1)) infected in MDCK cells assessed as protection against virus-induced cytopathogenicity after 48 hrs by crystal-violet staining-based assay; type: functional, organism-based; details: A/Puerto Rico/8/1934(H1N1)

Compound	IC50
CC(=O)O[C@@H]1c2c3c(cc(O)c2C(=O)O[C@@H]1C)O[C@@]1(C)[C@@H](O)C[C@H]2C(C)(C)C(=O)CC[C@]2(C)[C@@H]1C3	58 µM
C[C@@H]1Cc2c3c(c(Cl)c(O)c2C(=O)O1)O[C@@]1(C)[C@@H](O)C[C@H]2C(C)(C)C(=O)C=C[C@]2(C)[C@@H]1C3	74 µM
C[C@@H]1Cc2c3c(cc(O)c2C(=O)O1)O[C@@]1(C)CC[C@H]2C(C)(C)C(=O)CC[C@]2(C)[C@@H]1C3	34 µM
NC(=O)c1ncn([C@@H]2O[C@H](CO)[C@@H](O)[C@H]2O)n1 [RIBAVIRIN]	103 µM
